Results as given in patent publication US20170334899A1, “AMINO-SUBSTITUTED ISOTHIAZOLES” (Bayer Pharma Aktiengesellschaft, priority 2014, published 2017).

Assays:
Format in all cases: cell-based
DU145 = experiment: Proliferation assay (crystal violet), DU145; details: Homo sapiens, DU-145, 96 h; DU145 cells; 4 days incubation; crystal violet staining; read-out: IC50 inhibition of proliferation, DU145
Procedure, shortened: (§1)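 Crystal violet proliferation readout, 4-day compound incubation, 0.001–10 μM, final DMSO 0.5%. Zero-point plate stained at time of dosing set as 0%, untreated control as 100%; IC50 via 4-parameter fit.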

HeLa-MaTu-ADR = experiment: Proliferation assay (crystal violet), HeLa-MaTu-ADR; details: 96 h; HeLa-MaTu-ADR cells; 4 days incubation; crystal violet staining; read-out: IC50 inhibition of proliferation, HeLa-MaTu-ADR
Procedure, shortened: as §1

Caco-2 = experiment: Proliferation assay (crystal violet), Caco-2; details: Homo sapiens, 96 h; Caco-2 cells; 4 days incubation; crystal violet staining; read-out: IC50 inhibition of proliferation, Caco2
Procedure, shortened: as §1

B16F10 = experiment: Proliferation assay (crystal violet), B16F10; details: Mus musculus, B16-F10, 96 h; B16F10 cells; 4 days incubation; crystal violet staining; read-out: IC50 inhibition of proliferation, B16F10
Procedure, shortened: as §1

NCI-H460 = experiment: Proliferation assay (crystal violet), NCI-H460; details: Homo sapiens, 96 h; NCI-H460 cells; 4 days incubation; crystal violet staining; read-out: IC50 inhibition of proliferation, NCI-H460
Procedure, shortened: as §1

Cc1nsc(Nc2cnc3ccccc3n2)c1C(=O)Nc1ccc(OC2CCN(CC(F)(F)F)CC2)nc1 [Example 21, 3-Methyl-5-(quinoxalin-2-ylamino)-N-(6-{[1-(2,2,2-trifluoroethyl)piperidin-4-yl]oxy}-pyridin-3-yl)-1,2-thiazole-4-carboxamide]
IC50 (DU145): 1900 nM
IC50 (HeLa-MaTu-ADR): 880 nM
IC50 (Caco-2): 1400 nM
IC50 (B16F10): 1400 nM
IC50 (NCI-H460): 750 nM

Cc1nsc(Nc2ccc(C#N)cn2)c1C(=O)Nc1ccc(OC2CCN(C(=O)OC(C)(C)C)CC2)nc1 [Example 27, tert-Butyl 4-({5-[({5-[(5-cyanopyridin-2-yl)amino]-3-methyl-1,2-thiazol-4-yl}-carbonyl)amino]pyridin-2-yl}oxy)piperidine-1-carboxylate]
IC50 (DU145): 680 nM
IC50 (HeLa-MaTu-ADR): 250 nM
IC50 (Caco-2): 410 nM
IC50 (B16F10): 610 nM
IC50 (NCI-H460): 280 nM
